Measurements taken from patent publication US20030162818A1, “Acylsulfonamide derivative” (AJINOMOTO CO. INC., priority 1997, published 2003).
Values belong to the compound of their own block, whether it stands above or below them.

Key:
HepG2 cells = experiment: Measurement of intracellular fatty acid synthesis inhibition activity (FA biosynthesis from [14C]-glucose); format: cell-based; conditions: Homo sapiens, 3.0 × 10^−5 M compound, 3 hours culture with [14C]-glucose
Description: Measurement of Intracellular Fatty Acid Synthesis Inhibition Activity (FA Biosynthesis Inhibition Activity)
Each of the compounds produced in the Examples was dissolved in DMSO and added to an experimental culture medium (DMEM; 0.05 μg/ml insulin, 0.1 mg/ml glucose and 18.5 kBq/ml [^14C]-glucose). The HepG2 cells were adjusted to a density of 0.75×10^6 cells/ml, inoculated into a 12 well plate in an amount of 1 ml/well and cultured overnight at 37° C. in an atmosphere of 5% CO2 (culture medium: DMEM, […] and 10% FBS), and the resulting cells were washed twice with PBS(−) buffer, mixed with the experimental culture medium in an amount of 0.5 ml/well and then cultured at 37° C. for 3 hours in an atmosphere of 5% CO2. After the culturing, the cells were washed twice with ice-cooled PBS(−) buffer and peeled off, and lipids were extracted from the resulting cells with a lipid extraction solution (chloroform:methanol=2:1). The extract was mixed with 2.5 ml of ethanol and 0.1 ml of 33% potassium hydroxide and incubated at 70° C. for 1 hour. Lipids were again extracted from the reaction mixture, and the extract was applied to a silica gel thin layer plate. This was developed with a developing solution (hexane:diethyl ether:acetic acid=80:20:1) and then the fatty acid iodine-coloring part was collected to measure its radioactivity using a liquid scintillation counter. The inhibition activity % (3.0×10^−5 M) of each compound was calculated.

[1] = molecular target: T1, acetyl-CoA carboxylase (ACC) (Rattus norvegicus, UniProt P11497); experiment: Measurement of ACC inhibition activity (14C-bicarbonate incorporation, ACC purified from rat liver); format: biochemical; conditions: 5.6 × 10^−6 M compound; ACC purified from SD rat liver
T1 construct: subjected to decapitation and bloodletting under ether anesthesia to quickly take out the liver; from tissue; host or cells: rat liver (male SD rat, fasted then fed a high-sucrose feed)
Description: After 2 days of fasting, a male SD rat of 12 weeks of age was allowed to feed on a high sucrose feed (67% sucrose, 17.1% casein, 9.8% cellulose, 5% sodium chloride, 0.1% choline chloride and 1% vitamins) for 2 days and then subjected to decapitation and bloodletting under ether anesthesia to quickly take out the liver. The thus obtained liver was sliced in an ice-cooled buffer A (225 mM mannitol, 75 mM sucrose, 10 mM Tris/HCl (pH 7.5), 0.05 mM EDTA-2Na, 5 mM potassium citrate, 2.5 mM MnCl2, 10 mg/l aprotinin, 10 mg/l leupeptin and 10 mg/l antitrypsin) and then, after removal of moisture, adjusted to 5 ml/g by adding the buffer A and homogenized for 4 minutes using Polytron homogenizer. This was centrifuged for 10 minutes at 1,000 g and then the resulting supernatant was subjected to 10 minutes of high speed centrifugation at 17,000 g.
Ammonium sulfate was added to the thus obtained supernatant to a final concentration of 35%, and the mixture was stirred for 45 minutes and then subjected to 10 minutes of high speed centrifugation at 17,000 g. The thus obtained precipitate was mixed with 100 ml of a buffer B (100 mM Tris/HCl (pH 7.5), 0.5 M NaCl, 1 mM EDTA-2Na, 0.1 mM DTT, 10% glycerol, 10 mg/l aprotinin, 10 mg/l leupeptin and 10 mg/l antitrypsin) and subjected to 20 minutes of ultracentrifugation at 40,000, and the resulting supernatant was dialyzed overnight against 150 volumes of a buffer C (100 mM Tris/HCl (pH 7.5), 0.5 M NaCl, 1 mM EDTA-2Na, 0.1 mM DTT and 10% glycerol) and then filtered through a 5 μm filter. The filtrate was applied to a biotin affinity column, washed with the buffer B and then eluted with the buffer B supplemented with 5 mM biotin.
2. Measurement of ACC Inhibition Activity
Each of the compounds produced in the Examples was dissolved in DMSO, and the solution was put into a glass vial, mixed with 250 μl of an ACC-containing reagent 1 (40 mM Tris/HCl (pH 7.5), 40 mM MgCl2, 40 mM sodium citrate, 2 mM DTT and 100 μg/ml fatty acid-free BSA),incubated at 37° C. for 30 minutes in a thermostatic chamber, cooled with ice, mixed with 250 μl of a reagent 2 (40 mM Tris/HCl (pH 7.5), 2 mM DTT, 8 mM ATP and 0.5 mM acetyl-CoA) containing 74 kBq of NaH^14CO3, again incubated at 37° C. for 10 minutes in a thermostatic chamber and then mixed with 0.1 ml of 1 N HCl to terminate the reaction. After complete removal of moisture in the glass vial under a reduced pressure, an emulsified scintillator (Cleasol I) was added to the glass vial, and the ^14C radioactivity was measured using a liquid scintillation counter. […]
Inhibition activity ratio (%)=(1−radioactivity when a drug to be tested is added/radioactivity when the drug to be rested is not added)×100

Compound: CCCCCCCCCC(=O)NS(=O)(=O)c1ccccc1NC(=O)c1cccc(OCCCCCCC)c1 [Example 37, N-[2-(3-Heptyloxybenzamido]benzenesulfonyl]decanamide]
inhibition at 30 µM (HepG2 cells): 64.3% | melting point: 172 to 174 °C | inhibition at 5.6 µM [1]: 83.6%

Compound: CCCCCC(=O)NS(=O)(=O)c1ccccc1NC(=O)c1cccc(OCc2ccc(C(F)(F)F)cc2)c1 [Example 33, N-[2-[3-(4-Trifluoromethylbenzyloxy)benzamido]benzenesulfonyl]hexanamide]
inhibition at 30 µM (HepG2 cells): 97.5% | melting point: 142 to 143 °C | inhibition at 5.6 µM [1]: 52.3%

Compound: CCCCCCCCCC(=O)NS(=O)(=O)c1ccccc1NC(=O)c1ccc([N+](=O)[O-])c(OCc2ccccc2)c1 [Example 16, N-[2-(3-Benzyloxy-4-nitrobenzamido)benzenesulfonyl]decanamide]
inhibition at 30 µM (HepG2 cells): 94.3% | melting point: 129 to 130 °C | inhibition at 5.6 µM [1]: 79.9%

Compound: C/C=C/C=C/C(=O)NS(=O)(=O)c1ccccc1NC(=O)c1ccc(C#Cc2ccccc2)cc1 [Example 43, trans-N-[2-(4-Phenylethynylbenzamido)benzenesulfonyl]-2,4-hexadienamide]
inhibition at 30 µM (HepG2 cells): 92.3% | melting point: 208 to 209 °C | inhibition at 5.6 µM [1]: 54.3%

Compound: O=C(Nc1ccccc1S(=O)(=O)NC(=O)c1ccccc1)c1cccc(OCc2ccccc2)c1 [Example 2, N-[2-(3-Benzyloxybenzamido)benzenesulfonyl]benzamide]
inhibition at 30 µM (HepG2 cells): 43.8% | melting point: 201 to 202 °C | inhibition at 5.6 µM [1]: 60.7%

Compound: CCCCCCCCCC(=O)NS(=O)(=O)c1ccccc1NC(=O)c1cccc(OCC2CCCCC2)c1 [Example 28, N-[2-(3-Cyclohexylmethoxybenzamido)benzenesulfonyl]decanamide]
inhibition at 30 µM (HepG2 cells): 84.6% | melting point: 124 to 127 °C | inhibition at 5.6 µM [1]: 89.4%

The next lines start with results.

melting point: 148 to 149 °C | inhibition at 5.6 µM [1]: 81.6%
Compound: CCCCCCCCCC(=O)NS(=O)(=O)c1ccccc1NC(=O)c1cccc(OCc2ccc(OC)cc2)c1 [Example 25, N-[2-[3-(4-methoxybenzyloxy)benzamido]benzenesulfonyl]decanamide]
inhibition at 30 µM (HepG2 cells): 92%

melting point: 159 to 161 °C | inhibition at 5.6 µM [1]: 83.3%
Compound: CCCCCCCCCC(=O)NS(=O)(=O)c1ccccc1NC(=O)c1cccc(OCc2ccc(Cl)cc2)c1 [Example 19, N-[2-[3-(4-Chlorobenzyloxy)benzamido]benzenesulfonyl]decanamide]
inhibition at 30 µM (HepG2 cells): 90.5%

melting point: 132 to 133 °C | inhibition at 5.6 µM [1]: 67.6%
Compound: CCCCCCCCCC(=O)NS(=O)(=O)c1ccccc1NC(=O)c1cccc(OCc2ccc(C(C)(C)C)cc2)c1 [Example 31, N-[2-[3-(4-t-Butylbenzyloxy)benzamido]benzenesulfonyl]decanamide]
inhibition at 30 µM (HepG2 cells): 66.4%

melting point: 163 to 164 °C | inhibition at 5.6 µM [1]: 53.2%
Compound: CCCCCC(=O)NS(=O)(=O)c1ccccc1NC(=O)c1cccc(OCc2ccc(C(C)(C)C)cc2)c1 [Example 30, N-[2-[3-(4-t-Butylbenzyloxy)benzamido]benzenesulfonyl]hexanamide]
inhibition at 30 µM (HepG2 cells): 87.1%

melting point: 85 to 86 °C | inhibition at 5.6 µM [1]: 65%
Compound: CCCCCCCCCC(=O)NS(=O)(=O)c1ccccc1NC(=O)c1cccc(OCc2ccccc2)c1 [Example 9, N-[2-(3-Benzyloxybenzamido)benzenesulfonyl]decanamide]
inhibition at 30 µM (HepG2 cells): 86.8%
